Columns and labels:
[1] = system: formalin-induced inflammatory pain; assay: Formalin-induced spontaneous inflammatory pain (licking/flinching duration); format: in vivo, mice
Description: (§1) Animals and pain models. Adult CD1 mice (male, 25-32 g) were used for most experiments. Knockout mice were used lacking TNFR1/II (Tnfrsf1a/1b^−/−) and TRPV1 (Trpv1^−/−) and C57BL/6 wild-type control mice, all from Jackson, for some experiments. All animal procedures performed in this study were approved by the Harvard Medical Area Standing Committee on Animals. 20 μl of diluted formalin (5%), carrageenan (CRG, 1%), or complete Freund's adjuvant (CFA) were injected into the plantar surface of a hindpaw to produce acute, persistent, or chronic inflammatory pain, respectively. Postoperative pain was also produced through hindpaw incision^36 and neuropathic pain by ligation of the spinal nerve^37.
Reagents and administration. RvE1 and RvD1 were suspended in 1% or 10% ethanol as vehicle for investigating acute (<1 h) and persistent (1-6 h) effects of resolvins on inflammatory pain. The reagents (10 μl) were delivered to the cerebral spinal fluid via intrathecal injection made by a spinal cord puncture between the L5 and L6 level with a 30G needle^38.
(§2) Behavioral analysis. Mice were habituated in the testing environment for two days and performed behavioral testing in a blinded manner. Formalin-evoked spontaneous inflammatory pain was assessed by measuring duration (seconds) animals spent on licking/flinching the affected paws every 5 min for 45 min. Capsaicin-induced spontaneous pain was aslo assessed for 10 min. For testing mechanical sensitivity, mice were put in boxes on an elevated metal mesh floor and stimulated hindpaw with a series of von Frey hairs with logarithmically incrementing stiffness (0.02-2.56 grams, Stoelting), presented perpendicular to the plantar surface. It was determined the 50% paw withdrawal threshold using Dixon's up-down method^40. For testing heat sensitivity, mice were placed in plastic boxes and tested heat sensitivity using Hargreaves radiant heat apparatus (IITC Life Science Inc.). The basal paw withdrawal latency was adjusted to 9-12 seconds and set a cut-off of 20 seconds to prevent tissue damage. The percent maximal possible antinociceptive effect (% M.P.E) was calculated using the equation % M.P.E.=[(PL−BL2)/(BL1−BL2)]×100. BL1, baseline latency before inflammation; BL2, baseline latency after inflammation but before drug injection; PL, latency post drug injection.
Intrathecal injection. To avoid systemic effects of drugs and target spinal mechanisms, drugs were delivered into cerebral spinal fluid (CSF) space around lumbosacral spinal cord via intrathecal (i.t.) administration. Spinal cord puncture was made with a 30G needle between the L5 and L6 level to deliver the reagents (10 μl) to the cerebral spinal fluid (Hylden and Wilcox, 1980)^5. […] In addition to spinal cord cells, intrathecal drug administration also affects DRG cells^6,7.
Intrathecal injection: DHA and EPA (Cayman Chemical, 10 μg, prepared in 1% ethanol), COX-2 inhibitor NS-398 (Sigma, 0.1, 1, and 10 μg, prepared in 1% ethanol in FIG. 1a-c or in 10% ethanol in FIG. 2c), morphine (Sigma, 10 to 500 ng, prepared in 1% ethanol in FIG. 1a-c), naloxone (Sigma, 2 μg, prepared in 1% ethanol), pertussis toxin (Tocris Bioscience, 0.2 μg, prepared in saline), chemerin (R & D Systems, 0.45 to 100 ng, prepared in 1% ethanol), TNF-α (R & D Systems, 20 ng, prepared in saline), and capsaicin (Sigma, 0.5 μg in 10 μl, prepared in 1% DMSO) were delivered. To examine whether pretreatment of RvE1 attenuated TNF-α-induced persistent hyperalgesia at 1, 3, and 24 h, RvE1 and TNF-α were mixed and injected at the same time (FIG. 3c). To examine whether pretreatment of RvE1 attenuates capsaicin-induced acute spontaneous pain, RvE1 and capsaicin were mixed and injected at the same time (FIG. 3f).

[2] = system: CFA-induced mechanical allodynia; assay: CFA-induced mechanical allodynia (von Frey paw withdrawal threshold); format: in vivo, mice; conditions: intrathecal RvE1 3-100 ng, 3 d after CFA injection
Description: as §1
Behavioral analysis. Mice were habituated in the testing environment for two days and performed behavioral testing in a blinded manner. Formalin-evoked spontaneous inflammatory pain was assessed by measuring duration (seconds) animals spent on licking/flinching the affected paws every 5 min for 45 min. Capsaicin-induced spontaneous pain was aslo assessed for 10 min. […] It was determined the 50% paw withdrawal threshold using Dixon's up-down method^40. […] The percent maximal possible antinociceptive effect (% M.P.E) was calculated using the equation % M.P.E.=[(PL−BL2)/(BL1−BL2)]×100. […]

ERK phosphorylation = ERK phosphorylation (pERK) in superficial dorsal horn neurons of spinal slices; format: cell-based, mice; conditions: TNF-α 10 ng/ml, 5 min
Description: Spinal cord slice preparation. As previously reported^39, a portion of the lumbar spinal cord (L4-L5) was removed from young mice (3-4 week old) under urethane anesthesia (1.5-2.0 g/kg, i.p.) and transverse spinal cord slices were cut (600 μm) on a vibrating microslicer. The slices were perfused with Kreb's solution (8 ml/min) for >2 h prior to experiments. Some slices were stimulated with TNF-α (10 ng/ml, 5 min), the slices were fixed with 4% paraformaldehyde for 1 h, and processed pERK immunohistochemistry using thin sections (15 μm)^13.
Resolvins were also used for intraplantar injection. RvD1 or RvE1 was injected into the plantar surface of a hindapaw [20 ng, 20 μl , in 1% ethanol (Supplementary FIG. 5a, 5b) or in 10% ethanol (FIG. 2e, Supplementary FIG. 1d)]. […]
PERK immunohistochemistry in the spinal cord: Transverse spinal cord slices (600 μm) were cut on a vibrating microslicer. […] The stained sections were examined with a Nikon fluorescence microscope, and images were captured with a CCD Spot camera. The number of pERK-immunoreactive cells in the superficial dorsal horn (laminae I-III) was quantified in 5 spinal cord sections from each slice and averaged for that slice, and 4-5 slices from separate animals were included for data analysis^12.

inflammatory pain = assay: Inflammatory pain models induced by formalin or CFA (summary statements); format: in vivo, mouse
Description: as §1, §2

## CC[C@@H](O)/C=C/C=C\C[C@@H](O)/C=C/C=C/C=C\[C@@H](O)CCCC(=O)O [RvE1, 5S,12R,18R-trihydroxyeicosapentaenoic acid]
[1]; intrathecal, dose response curve FIG. 1c
  effective dose range compared with morphine and NS-398, formalin 2nd phase: much lower than that of either morphine or the COX-2 inhibitor NS-398
[1]; preemptive intrathecal injection, RvE1 0.3 and 1.0 ng
  formalin-induced pain behavior, 1st phase: not the 1st phase
[1]; preemptive intrathecal injection, RvE1 0.3 and 1.0 ng, morphine 10 to 500 ng, NS-398 0.1, 1, and 10 μg, chemerin 0.45 to 100 ng
  formalin-induced pain behavior, 2nd phase: reduced
[2]
  CFA-induced mechanical allodynia: reduces CFA-induced mechanical allodynia in a dose-dependent manner
ERK phosphorylation
  TNF-α-induced ERK phosphorylation in superficial dorsal horn neurons: reduced the phosphorylation
Inflammatory pain
  pain-like behaviors: potently inhibit

From US20120245229A1, “METHOD FOR TREATING NEUROPATHIC PAIN” (priority 2009, published 2012)
